Data as given in patent US9193695B2, “1, 2, 4-triazolone derivative and use thereof as an antagonist on the arginine-vasopressin 1B receptor” (TAISHO PHARMACEUTICAL CO., LTD., priority 2010, dated 2015).
Each block holds one compound with its values, some of them ahead of it.

Target: T1, Human V1b receptor (Homo sapiens, UniProt P47901)
T1 sequence (P47901 1-424): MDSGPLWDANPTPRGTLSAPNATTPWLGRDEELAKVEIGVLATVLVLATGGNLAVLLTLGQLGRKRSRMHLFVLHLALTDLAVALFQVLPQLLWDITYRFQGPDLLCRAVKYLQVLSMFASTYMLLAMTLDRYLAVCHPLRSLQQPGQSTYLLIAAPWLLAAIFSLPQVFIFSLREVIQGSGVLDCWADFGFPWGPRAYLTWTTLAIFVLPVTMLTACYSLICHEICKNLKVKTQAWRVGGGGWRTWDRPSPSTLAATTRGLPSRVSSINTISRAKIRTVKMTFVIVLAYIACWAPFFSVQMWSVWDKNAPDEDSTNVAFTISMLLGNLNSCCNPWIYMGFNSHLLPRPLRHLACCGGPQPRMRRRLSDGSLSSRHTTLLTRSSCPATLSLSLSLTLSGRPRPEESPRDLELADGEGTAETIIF
Assay: Binding test for V1b receptor ([3H]AVP displacement, crude membrane preparation)
Parameters: expressed in transfected cells; host or cells: 293FT cells (Invitrogen), transient expression; crude membrane preparation
Details: [3H]AVP 0.4 to 1 nmol/L; membranes of 293FT cells transiently expressing human V1b receptor; room temperature, 60 minutes
Experimental: Binding Test for V1b Receptor
Human V1b receptor was transiently expressed in 293FT cells (Invitrogen). The cells were collected and were homogenated in a 15 mmol/L tris-hydrochloric acid buffer (pH 7.4, containing 2 mmol/L magnesium chloride, 0.3 mmol/L ethylenediaminetetracetic acid, and 1 mmol/L glycol ether diaminetetraacetic acid). The resulting homogenate was centrifuged at 50,000×g at 4° C. for 20 minutes. The precipitate was resuspended in a 75 mmol/L tris-hydrochloric acid buffer (pH 7.4, containing 12.5 mmol/L magnesium chloride, 0.3 mmol/L ethylenediaminetetracetic acid, 1 mmol/L glycol ether diamine tetraacetic acid, and 250 mmol/L sucrose) to give a crude membrane preparation, which was stored at −80° C. until the binding test. In the binding test, the crude membrane preparation was diluted with a 50 mmol/L tris-hydrochloric acid buffer (pH 7.4, containing 10 mmol/L magnesium chloride and 0.1% bovine serum albumin), and test compound was serially diluted with DMSO. The diluted crude membrane preparation was incubated with each test compound (final concentration of 0.01 nmol/L to 1 μmol/L) and [^3H]AVP (final concentration: 0.4 to 1 nmol/L) at room temperature for 60 minutes. After the incubation, the mixture was suction filtered through a GF/C filter pretreated with 0.3% polyethyleneimine. The GF/C filter was dried, and a scintillator was added thereto. The radioactivity remaining on the filter was measured using TopCount (PerkinElmer Inc.). The radioactivity in the presence of 10 μmol/L of unlabeled AVP was defined as 0%, and the radioactivity in the absence of unlabeled AVP was defined as 100%. A dose-response curve was plotted from radioactivities in the presence of a test compound at various concentrations, and the 50% inhibitory concentration (IC50 value) of the compound was calculated.

SMILES: CC(C)NC(=O)Cn1c(-c2cccc(Cl)c2)nn(-c2ccc(CC(C)N3C4CCC3COC4)cn2)c1=O (single isomer, unassigned; (+)) [Ad-19-2]
IC50: 0.017 µM

SMILES: CC(C)NC(=O)Cn1c(-c2cccc(Cl)c2)nn(-c2ccc(CC(C)N3C4CCC3COC4)cn2)c1=O (single isomer, unassigned; (-)) [Ad-19-1]
IC50: 0.00059 µM

SMILES: CC(C)NC(=O)Cn1c(-c2cccc(Cl)c2)nn(-c2ccc(CCN3CC4CCC(C3)O4)cc2)c1=O [Aa-9, 2-[3-(3-Chlorophenyl)-1-{4-[2-(8-oxa-3-azabicyclo[3.2.1]oct-3-yl)ethyl]phenyl}-5-oxo-1,5-dihydro-4H-1,2,4-triazol-4-yl]-N-(propan-2-yl)acetamide]
IC50: 0.018 µM

SMILES: CC(C)NC(=O)Cn1c(-c2cccc(Cl)c2)nn(-c2ccc(CCN3C4CCC3CC(O)C4)cn2)c1=O (stereo not shown) [Ab-4, 2-[3-(3-Chlorophenyl)-1-{5-[2-(3-hydroxy-8-azabicyclo[3.2.1]oct-8-yl)ethyl]pyridin-2-yl}-5-oxo-1,5-dihydro-4H-1,2,4-triazol-4-yl]-N-(propan-2-yl)acetamide]
IC50: 0.02 µM

SMILES: CC(C)NC(=O)Cn1c(-c2cccc(Cl)c2)nn(-c2ccc(CCN3C4CCC3COC4)c(F)c2)c1=O [Ad-8, 2-[3-(3-Chlorophenyl)-1-{3-fluoro-4-[2-(3-oxa-8-azabicyclo[3.2.1]oct-8-yl)ethyl]phenyl}-5-oxo-1,5-dihydro-4H-1,2,4-triazol-4-yl]-N-(propan-2-yl)acetamide]
IC50: 0.0015 µM

SMILES: COc1cc(-n2nc(-c3cccc(Cl)c3)n(CC(=O)NC(C)C)c2=O)ccc1CCN1CCOCC1 [Ad-9, 2-[3-(3-Chlorophenyl)-1-{3-methoxy-4-[2-(morpholin-4-yl)ethyl]phenyl}-5-oxo-1,5-dihydro-4H-1,2,4-triazol-4-yl]-N-(propan-2-yl)acetamide]
IC50: 0.0023 µM

SMILES: COc1cc(-n2nc(-c3cccc(Cl)c3)n(CC(=O)NC(C)C)c2=O)ccc1CCN1C2CCC1COC2 [Ad-10, 2-[3-(3-Chlorophenyl)-1-{3-methoxy-4-[2-(3-oxa-8-azabicyclo[3.2.1]oct-8-yl)ethyl]phenyl}-5-oxo-1,5-dihydro-4H-1,2,4-triazol-4-yl]-N-(propan-2-yl)acetamide]
IC50: 0.0013 µM

SMILES: CC(C)NC(=O)Cn1c(-c2cccc(Cl)c2)nn(-c2ccc(CC(C)N3C4CCC3COC4)cc2)c1=O (stereo not shown) [Ad-14, 2-[3-(3-Chlorophenyl)-1-{4-[2-(3-oxa-8-azabicyclo[3.2.1]oct-8-yl)propyl]phenyl}-5-oxo-1,5-dihydro-4H-1,2,4-triazol-4-yl]-N-(propan-2-yl)acetamide]
IC50: 0.00054 µM

SMILES: CC(C)NC(=O)Cn1c(-c2cccc(Cl)c2)nn(-c2ccc(CC(C)N3CCOCC3)cn2)c1=O (stereo not shown) [Ad-15, 2-[3-(3-Chlorophenyl)-1-{5-[2-(morpholin-4-yl)propyl]pyridin-2-yl}-5-oxo-1,5-dihydro-4H-1,2,4-triazol-4-yl]-N-(propan-2-yl)acetamide]
IC50: 0.0051 µM

SMILES: CC(C)NC(=O)Cn1c(-c2cccc(Cl)c2)nn(-c2ccc(CC(C)N3C4CCC3COC4)cn2)c1=O (stereo not shown) [Ad-16, 2-[3-(3-Chlorophenyl)-1-{5-[2-(3-oxa-8-azabicyclo[3.2.1]oct-8-yl)propyl]pyridin-2-yl}-5-oxo-1,5-dihydro-4H-1,2,4-triazol-4-yl]-N-(propan-2-yl)acetamide]
IC50: 0.00092 µM

SMILES: CC(C)(C)NC(=O)Cn1c(-c2cccc(Cl)c2)nn(-c2ccc(CCN3CCOCC3)cn2)c1=O [Ad-17, N-Tert-Butyl-2-[3-(3-chlorophenyl)-1-{5-[2-(morpholin-4-yl)ethyl]pyridin-2-yl}-5-oxo-1,5-dihydro-4H-1,2,4-triazol-4-yl]acetamide]
IC50: 0.0035 µM

Now from value to compound:

IC50: 0.096 µM
SMILES: CC(CO)NC(=O)Cn1c(-c2cccc(Cl)c2)nn(-c2ccc(CCN3CCOCC3)cc2)c1=O (racemic) [Ad-20, 2-[3-(3-Chlorophenyl)-1-{4-[2-(morpholin-4-yl)ethyl]phenyl}-5-oxo-1,5-dihydro-4H-1,2,4-triazol-4-yl]-N-(1-hydroxypropan-2-yl)acetamide]

IC50: 0.056 µM
SMILES: CC(C)NC(=O)Cn1c(-c2cccc(Cl)c2)nn(-c2ccc(CCN3CCC(O)C3)cc2)c1=O (stereo not shown) [Aa-6, 2-[3-(3-Chlorophenyl)-1-{4-[2-(3-hydroxypyrrolidin-1-yl)ethyl]phenyl}-5-oxo-1,5-dihydro-4H-1,2,4-triazol-4-yl]-N-(propan-2-yl)acetamide]

IC50: 0.034 µM
SMILES: CC(C)NC(=O)Cn1c(-c2cccc(Cl)c2)nn(-c2ccc(CCN3CCC(CO)C3)cc2)c1=O (stereo not shown) [Aa-7, 2-[3-(3-Chlorophenyl)-1-(4-{2-[3-(hydroxymethyl)pyrrolidin-1-yl]ethyl}phenyl)-5-oxo-1,5-dihydro-4H-1,2,4-triazol-4-yl]-N-(propan-2-yl)acetamide]

IC50: 0.037 µM
SMILES: CC(C)NC(=O)Cn1c(-c2cccc(Cl)c2)nn(-c2ccc(CCN3CCCCC3)cc2)c1=O [Aa-11, 2-[3-(3-Chlorophenyl)-5-oxo-1-{4-[2-(piperidin-1-yl)ethyl]phenyl}-1,5-dihydro-4H-1,2,4-triazol-4-yl]-N-(propan-2-yl)acetamide]

IC50: 0.02 µM
SMILES: CC(C)NC(=O)Cn1c(-c2cccc(Cl)c2)nn(-c2ccc(CCN3CCCOCC3)cc2)c1=O [Aa-13, 2-[3-(3-Chlorophenyl)-1-{4-[2-(1,4-oxazepan-4-yl)ethyl]phenyl}-5-oxo-1,5-dihydro-4H-1,2,4-triazol-4-yl]-N-(propan-2-yl)acetamide]

IC50: 0.079 µM
SMILES: CC(C)NC(=O)Cn1c(-c2cccc(Cl)c2)nn(-c2ccc(CCN3CCOCC3)nc2)c1=O [Ac-2, 2-[3-(3-Chlorophenyl)-1-{6-[2-(morpholin-4-yl)ethyl]pyridin-3-yl}-5-oxo-1,5-dihydro-4H-1,2,4-triazol-4-yl]-N-(propan-2-yl)acetamide]

IC50: 0.0025 µM
SMILES: CC(C)(C)NC(=O)Cn1c(-c2cccc(Cl)c2)nn(-c2ccc(CCN3CCOCC3)cc2)c1=O [Ad-1, N-Tert-Butyl-2-[3-(3-chlorophenyl)-1-{4-[2-(morpholin-4-yl)ethyl]phenyl}-5-oxo-1,5-dihydro-4H-1,2,4-triazol-4-yl]acetamide]

IC50: 0.015 µM
SMILES: CC(NC(=O)Cn1c(-c2cccc(Cl)c2)nn(-c2ccc(CCN3CCOCC3)cc2)c1=O)C(F)(F)F (stereo not shown) [Ad-2, 2-[3-(3-Chlorophenyl)-1-{4-[2-(morpholin-4-yl)ethyl]phenyl}-5-oxo-1,5-dihydro-4H-1,2,4-triazol-4-yl]-N-(1,1,1-trifluoropropan-2-yl)acetamide]

IC50: 0.055 µM
SMILES: CC(C)(CO)NC(=O)Cn1c(-c2cccc(Cl)c2)nn(-c2ccc(CCN3CCOCC3)cc2)c1=O [Ad-3, 2-[3-(3-Chlorophenyl)-1-{4-[2-(morpholin-4-yl)ethyl]phenyl}-5-oxo-1,5-dihydro-4H-1,2,4-triazol-4-yl]-N-(1-hydroxy-2-methylpropan-2-yl)acetamide]

IC50: 0.102 µM
SMILES: O=C(Cn1c(-c2cccc(Cl)c2)nn(-c2ccc(CCN3CCOCC3)cc2)c1=O)NC1CCC1 [Ad-4, 2-[3-(3-Chlorophenyl)-1-{4-[2-(morpholin-4-yl)ethyl]phenyl}-5-oxo-1,5-dihydro-4H-1,2,4-triazol-4-yl]-N-cyclobutylacetamide]

IC50: 0.097 µM
SMILES: O=C(Cn1c(-c2cccc(Cl)c2)nn(-c2ccc(CCN3CCOCC3)cc2)c1=O)NC1COC1 [Ad-5, 2-[3-(3-Chlorophenyl)-1-{4-[2-(morpholin-4-yl)ethyl]phenyl}-5-oxo-1,5-dihydro-4H-1,2,4-triazol-4-yl]-N-(oxetan-3-yl)acetamide]

IC50: 0.062 µM
SMILES: O=C(Cn1c(-c2cccc(Cl)c2)nn(-c2ccc(CCN3CCOCC3)cc2)c1=O)NCC1CC1 [Ad-6, 2-[3-(3-Chlorophenyl)-1-{4-[2-(morpholin-4-yl)ethyl]phenyl}-5-oxo-1,5-dihydro-4H-1,2,4-triazol-4-yl]-N-(cyclopropylmethyl)acetamide]

IC50: 0.0038 µM
SMILES: CC(C)NC(=O)Cn1c(-c2cccc(Cl)c2)nn(-c2ccc(CCN3CCOCC3)c(F)c2)c1=O [Ad-7, 2-[3-(3-Chlorophenyl)-1-{3-fluoro-4-[2-(morpholin-4-yl)ethyl]phenyl}-5-oxo-1,5-dihydro-4H-1,2,4-triazol-4-yl]-N-(propan-2-yl)acetamide]

IC50: 0.0029 µM
SMILES: CC(C)NC(=O)Cn1c(-c2cccc(Cl)c2)nn(-c2ccc(CC(C)N3CCOCC3)cc2)c1=O (stereo not shown) [Ad-13, 2-[3-(3-Chlorophenyl)-1-{4-[2-(morpholin-4-yl)propyl]phenyl}-5-oxo-1,5-dihydro-4H-1,2,4-triazol-4-yl]-N-(propan-2-yl)acetamide]
